Where a SMILES comes first, the peptide text is derived from it.
Experiments:
NEP [1] = target: T1, NEP (Rattus norvegicus, UniProt P07861); test: 3H-Substance P hydrolysis by rat spinal cord slices; type: biochemical; details: 25° C., over 30 min incubation, read-out: inhibition of Substance P degradation
T1 construct: incubations of membrane and fresh tissue slice preparations from nervous tissues; from tissue; host or cells: rat spinal cord (dorsal zone), fresh slices or 100 000 x g membrane fraction
T1 sequence (P07861 1-750): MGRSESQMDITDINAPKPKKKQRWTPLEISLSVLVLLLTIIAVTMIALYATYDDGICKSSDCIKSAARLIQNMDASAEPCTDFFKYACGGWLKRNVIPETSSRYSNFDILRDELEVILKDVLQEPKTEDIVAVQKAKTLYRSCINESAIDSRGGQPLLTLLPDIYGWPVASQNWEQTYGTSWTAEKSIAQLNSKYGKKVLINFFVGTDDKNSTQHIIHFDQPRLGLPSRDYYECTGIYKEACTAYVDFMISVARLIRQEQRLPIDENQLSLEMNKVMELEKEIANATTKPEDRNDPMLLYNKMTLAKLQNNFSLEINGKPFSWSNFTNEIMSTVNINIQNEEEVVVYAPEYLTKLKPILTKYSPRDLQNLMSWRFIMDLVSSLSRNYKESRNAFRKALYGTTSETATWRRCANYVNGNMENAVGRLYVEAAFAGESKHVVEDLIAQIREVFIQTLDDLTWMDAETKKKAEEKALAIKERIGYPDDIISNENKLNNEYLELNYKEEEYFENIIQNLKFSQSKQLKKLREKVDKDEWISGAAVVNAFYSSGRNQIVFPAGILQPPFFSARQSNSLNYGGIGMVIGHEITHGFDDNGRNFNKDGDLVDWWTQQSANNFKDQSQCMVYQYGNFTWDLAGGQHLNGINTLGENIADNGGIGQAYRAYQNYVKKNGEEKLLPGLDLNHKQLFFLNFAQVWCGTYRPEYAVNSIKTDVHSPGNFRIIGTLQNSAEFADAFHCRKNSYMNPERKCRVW
Method: For the experiments of analysis of the NEP peptidase activity, an ex vivo model using incubations of membrane and fresh tissue slice preparations from nervous tissues that are known to be appropriate for exploring NEP peptidase activity: i.e. the dorsal zone of rat spinal cord, was first developed. […] (NEN, 12.5-25 nM) were used.
The objective was to measure the NEP-specific endoproteolysis of these substrates.
The C-18 Sep-Pak cartridges (Waters) were used to analyze the hydrolysis of the radiolabeled peptides: they separate compounds according to their differences in polarity. This solid-phase extraction procedure allows isolating the substrate from its metabolites, since the hydrophobic character of the peptide metabolites is reduced or even lost compared to the intact peptide substrate.
The radioactivity of eluted and isolated compounds is determined by liquid scintillation spectrometry.

NEP [2] = target: T1, NEP; test: Met-enkephalin hydrolysis by rat spinal cord slices and membrane preparations, RP-HPLC analysis; type: biochemical; details: 10 μM; spinal cord slices; 20 min at 25° C.; Met-enkephalin 10 μM; read-out: inhibition of Met-enkephalin degradation (RP-HPLC)
Method: The organs are rapidly removed, dissected on ice, freed of nerve fibers and of adipose tissues and then washed in cold oxygenated glucose-and bicarbonate-containing Krebs Ringer (KRBG) solution, whose composition is the following: 120 mM NaCl-5 mM KCl-1.2 mM KH2PO4-27.5 mM NaHCO3-2.6 mM CaCl2-0.67 mM MgSO4-5.9 mM glucose. The slices of tissues are prepared either manually with the aid of a scalpel (1-2 mm thick), or mechanically with the aid of a “Tissue Chopper” (1 mm thick). Slices are then dispersed into reaction tubes where they are subjected to three successive washes in ice-cold oxygenated KRBG. […] The organs dissected out and washed in ice-cold KRBG are homogenized at 4° C. in 10 volumes (vol./wt.) of 50 mM Tris/HCl buffered at pH 7.2, using a Teflon-glass homogenizer (3×5 sec.). A first centrifugation of 5 min. at 1000×g and 4° C. makes it possible to remove the tissular debris and the nuclei in the pellet. A second centrifugation of the supernatant at 100 000×g and 5° C. concentrates the membrane fraction into the pellet, which will be superficially washed three times with cold Tris/HCl buffer and resuspended in fresh buffer using a Kontes homogenizer, aliquoted and stored at -80° C. while waiting to be used as enzyme source, at least until three months. For the experiments of analysis of the NEP peptidase activity, an ex vivo model using incubations of membrane and fresh tissue slice preparations from nervous tissues that are known to be appropriate for exploring NEP peptidase activity: i.e. the dorsal zone of rat spinal cord, was first developed. The metabolism rate of the NEP-sensitive peptides was measured using the both NEP substrates involved in the signaling of the nociceptive response: the neuropeptides Met-enkephalin and Substance P. […] (NEN, 12.5-25 nM) were used. The objective was to measure the NEP-specific endoproteolysis of these substrates. […] Furthermore, for studying the functional role of […] NO: 1), the reaction was carried out in the presence of the SMR1-peptide alone or combined with specific inhibitors of membrane peptidases which could inactivate the […] NO: 1) peptide by cleaving its C-terminal end: an inhibitor of carboxypeptidase […], 10 μM, Sigma) and an inhibitor of dipeptidylpeptidase IV (DPPIV inhibitor, 10 μM, Roche). […] Samples are kept at -30° C. until the measurement of their intact substrate and its metabolites content. The membrane preparations are preincubated in 50 mM Tris/HCl buffered at pH 7.2 and containing 10 μM Bestatin, at 25, 30 or 37° C. in constantly shaken water, in the presence or in the absence of NEP inhibitor. […] Samples are kept at -30° C. until the measurement of their intact substrate and its metabolites content. HPLC is a highly resolutive procedure that allows one to isolate, and detect by coupled spectrophotometer analysis, the non-radioactive peptides whose concentration is at least 1 to 10 μM. The C-18 RP-HPLC is based on the same principle as the C-18 Sep-Pak cartridge. The chromatographic analyses were used to study the hydrolysis of Met-Enkephalin, that were done on a C-18 LUNA analytical column (150×4.6 mm inner diameter, AIT) packed with 5 μm-diameter beads. […] Their identification and relative quantification (peak height) are checked by continuously monitoring the UV absorbance at 254 nm of column outflow. In first series of experiment, the slices and the membrane preparations of spinal cord tissues were incubated at 30° C. in a 1 ml final volume of KRBG, and at 37° C. in a 0.25 ml final volume of Tris/HCl 50 mM, pH 7.2, respectively.

## N=C(N)NCCC[C@H](NC(=O)[C@@H]1CCCN1C(=O)[C@H](CC(N)=O)NC(=O)[C@H](Cc1c[nH]cn1)NC(=O)[C@@H](N)CCC(N)=O)C(=O)O [SMR1-QHNPR, QHNPR] (H-QHNPR-OH; N-terminus and C-terminus assumed)
NEP [1]
  inhibition at 10 µM: 75%
NEP [2]
  inhibition at 10 µM: 70%
